Reference: patent publication US20250205372A1, “RADIOPHARMACEUTICAL COMPOSITIONS, SYNTHETIC METHODS, AND METHODS OF TREATMENT” (The Research Foundation for The State University of New York, priority 2022, published 2025)
One block for each substance: values may come before it.

Key:
Format in all cases: physicochemical
[1] = Variable temperature mass spectrometry (VTMS): binding of the first second sphere water; settings: gas phase
Experimental: VTMS and CIVP: All experiments were carried out in a home-built quadrupole time-of-flight mass spectrometer described elsewhere (Waller, 2019). Briefly, the complexes were introduced into the gas phase via an electrospray ionization (ESI) source purged with dry air using PEEK tubing of 50 μm inner diameter. All samples were diluted to 50-100 μM in 50/50 acetonitrile/water from 500 μM stock solutions and an optimized flow rate of 0.6 μL/min was employed. The ESI voltages were typically 2050-2080 V, low enough to prevent sample degradation while still ensuring steady signal. Once generated, the ions were introduced into a vacuum system and stored in a room temperature […] trap. Ions were extracted from this trap and mass selected by a quadrupole mass filter (Extrel), then guided into a cryogenically cooled ion trap capable of operating in a temperature range of 310 K-3 K. For Variable temperature mass spectrometry (VTMS) measurements (Racow, 2019), a mixture of water and helium was introduced via a pulsed valve allowing the formation of hydrated complexes, if thermodynamically feasible. A fraction of ions was then extracted, at 10 Hz, into a reflectron time-of-flight (TOF) mass spectrometer to analyze the relative intensities of the resulting hydrates. The trap was cooled down from 310 K at a rate of ˜1 K/min and mass spectra were collected by summing 1000 scans at 10 K intervals in the cooling down period. The partial pressure of water was maintained between 4×10−8 to 2×10^−7 Torr as detected by a residual gas analyzer (Extorr). Vibrational spectra were recorded using a method known as Cryogenic Ion Vibrational Predissociation (CIVP) spectroscopy as described previously (Yang 2019). Briefly, a mixture of N2 and helium was seeded into the cryogenic ion trap, encouraging the formation of nitrogen adducts (so-called “tags”) typically between 45 K-48 K. Tagged complexes were extracted into the TOF and intersected by a tunable infrared laser pulse from a Nd:YAG pumped OPO/OPA system (LaserVision). The tagged ions absorb a single photon when the wavelength is resonant with a vibrational transition, resulting in the desorption of the tag from the ions. Fragment ion yields were subsequently quantified by a reflectron mass spectrometer. The ratio of fragment to tagged ions, corrected for the laser power, at each wavelength thus yields a linear absorption spectrum of the ions of interest that can be analyzed in the same way as atypical FTIR spectrum.
Data Analysis and Detailed Discussion. The variable temperature mass spectra and corresponding speciation curves of the protonated tripeptide+NOTA (4) and the Ga-tripeptide-NOTA complex (^natGa-4) are shown in FIGS. 71-75. At the highest temperature shown in both figures, no water adduct is observed. […] Similar values were found for the metal-free complex, further confirming that only second sphere hydration events were observed.

[2] = Cleavage assay for cold complexes: pH-dependent autolytic cleavage monitored by LCMS/analytical HPLC; settings: 80° C. and pH 4.5
Experimental: Cleavage of the cold model complexes was observed over a range of physiological pH conditions, including pH values of 4.5, 5.5, 6.5, and 7.5. Aqueous buffer solutions were prepared using 10 mM sodium acetate (pH 4.5 and 5.5) or 10 mM HEPES (pH 6.5 and 7.5), which were subsequently adjusted to the desired pH using NaOH and/or HCl. An aliquot of the complex was placed in an aqueous solution of the desired pH and incubated for 48 hours at 80° C., monitored regularly via LCMS.

[3] = Temperature-dependent autolytic release from ^67Ga-radiolabeled model peptides (radioHPLC)
Experimental: ^67Ga-citrate was purchased from Jubilant Radiopharma at an average specific activity of 205.0 MBq/mL. The ^67Ga-citrate solution was first converted to ^67GaCl3 using an established solid-phase extraction protocol (Pandy, 2021). The resulting average specific activity of the obtained ^67Ga-chloride solution used for solution radio-labelling was 80.5 MBq/mL. For radio-labeling of NOTA-based model peptides or compound 10, a 20 μL aliquot containing 4.5 MBq of ^67GaCl3 was added to the conjugate (10 nmol, 300 μL) in 10 mM of sodium acetate (NaOAc) buffer. The pH of the solution was adjusted to 5.0. Radiolabeling was completed after 20 minutes at room temperature. The radiolabeled conjugates were characterized with radio-HPLC.

[4] = Quantitation of the ^68Ga(8) product released from TG-10 resin over time

Substance: 2,2′-(7-(2-((1-1-((2-(((S)-1-amino-3-(1H-indol-3-yl)-1-oxopropan-2-yl)amino)-2-oxoethyl)amino)-3-hydroxy-1-oxopropan-2-yl)amino)-2-oxoethyl)-1,4,7-triazonane-1,4-diyl)diacetic acid [Compound 4]
ΔG (ΔG^298) for the binding of the first second sphere water [1]: -6.74 ± 0.19 kcal/mol
ΔH for the binding of the first second sphere water [1]: -13.2 ± 0.12 kcal/mol
ΔS for the binding of the first second sphere water [1]: −91.3 +/− 2.2 J/mol K

Substance: (S)-2,2′-(7-(2-((2-((2-((I-amino-3-(1H-indol-3-yl)-1-oxopropan-2-yl)amino)-2-oxoethyl)amino)-2-oxoethyl)amino)-2-oxoethyl)-1,4,7-triazonane-1,4-diyl)diacetic acid [Compound 3]
autolytic release (analytical HPLC chromatograms) [2]: no autolytic release

Substance: ^67Gallium 2,2′,2″-(10-(2-((1-1-((2-(((S)-1-amino-3-(H-indol-3-yl)-1-oxopropan-2-yl)amino)-2-oxoethyl)amino)-3-hydroxy-1-oxopropan-2-yl)amino)-2-oxoethyl)-1,4,7,10-tetraazacyclododecane-1,4,7-triyl)triacetate [^67Ga-5]
autolytic release (analytical radioHPLC chromatograms) ([3]; 25° C.): no autolytic release
autolytic release (analytical radioHPLC chromatograms) ([3]; 37° C.): no autolytic release
autolytic release (analytical radioHPLC chromatograms) ([3]; 80° C.): no autolytic release

Substance: ^67Gallium (S)-2,2′-(7-(2-((2-((2-((I-amino-3-(1H-indol-3-yl)-1-oxopropan-2-yl)amino)-2-oxoethyl)amino)-2-oxoethyl)amino)-2-oxoethyl)-1,4,7-triazonane-1,4-diyl)diacetate [^67Ga-3]
autolytic release (analytical radioHPLC chromatograms) ([3]; 25° C.): no autolytic release
autolytic release (analytical radioHPLC chromatograms) ([3]; 37° C.): lack of fast autolytic release

Substance: ^68Gallium (((1S)-1-carboxy-5-(3-(naphthalen-2-yl)-2-((1r,4S)-4-((6-oxo-6-((4-((1,4,7-tris(carboxymethyl)-1,4,7-triazonan-2-yl)methyl)phenyl)amino)hexanamido)methyl)cyclohexane-1-carboxamido)propanamido)pentyl)carbamoyl)-L-glutamic acid triacetate [^68Ga(8)]
Activity released per time ([4]; released from TG-10, 10 min): 14.2 ± 1.57%
Cumulative released activity ([4]; released from TG-10, 10 min): 14.2 ± 1.57%
Activity released per time ([4]; released from TG-10, 20 min): 17.9 ± 0.97%
Cumulative released activity ([4]; released from TG-10, 20 min): 32.1 ± 0.60%
Activity released per time ([4]; released from TG-10, 30 min): 18.9 ± 0.61%
Cumulative released activity ([4]; released from TG-10, 30 min): 50.9 ± 1.21%
Activity released per time ([4]; released from TG-10, 60 min): 15.4 ± 0.85%
Cumulative released activity ([4]; released from TG-10, 60 min): 66.3 ± 0.36%
Activity released per time ([4]; released from TG-10, 90 min): 11.5 ± 0.84%
Cumulative released activity ([4]; released from TG-10, 90 min): 77.8 ± 1.20%
Activity released per time ([4]; released from TG-10, 120 min): 9.2 ± 1.56%
Cumulative released activity ([4]; released from TG-10, 120 min): 87.0 ± 2.76%
Cumulative released activity ([4]; released from TG-10, last line of table, time not given): 88.0%

Substance: ^natCopper 2,2′-(7-(2-((1-1-((2-(((S)-1-amino-3-(1H-indol-3-yl)-1-oxopropan-2-yl)amino)-2-oxoethyl)amino)-3-hydroxy-1-oxopropan-2-yl)amino)-2-oxoethyl)-1,4,7-triazonane-1,4-diyl)diacetate [^natCu-4]
autolytic release (analytical HPLC chromatograms) [2]: no autolytic release

Substance: ^natCopper (S)-2,2′-(7-(2-((2-((2-((1-amino-3-(1H-indol-3-yl)-1-oxopropan-2-yl)amino)-2-oxoethyl)amino)-2-oxoethyl)amino)-2-oxoethyl)-1,4,7-triazonane-1,4-diyl)diacetate [^natCu-3]
autolytic release (analytical HPLC chromatograms) [2]: no autolytic release

Continued, values first:

autolytic release (analytical HPLC chromatograms) [2]: no autolytic release
Substance: ^natCopper 2,2′,2-(10-(2-(((R)-1-((2-(((S)-1-amino-3-(1H-indol-3-yl)-1-oxopropan-2-yl)amino)-2-oxoethyl)amino)-3-hydroxy-1-oxopropan-2-yl)amino)-2-oxoethyl)-1,4,7,10-tetraazacyclododecane-1,4,7-triyl)triacetate [^natCu-5]

autolytic release (analytical HPLC chromatograms) [2]: no autolytic release
Substance: ^natGallium 2,2′,2″-(10-(2-((1-1-((2-(((S)-1-amino-3-(1H-indol-3-yl)-1-oxopropan-2-yl)amino)-2-oxoethyl)amino)-3-hydroxy-1-oxopropan-2-yl)amino)-2-oxoethyl)-1,4,7,10-tetraazacyclododecane-1,4,7-triyl)triacetate [^natGa-5]

ΔG (ΔG^298) for the binding of the first second sphere water [1]: -7.19 ± 0.645 kcal/mol
ΔH for the binding of the first second sphere water [1]: -11.7 ± 0.621 kcal/mol
ΔS for the binding of the first second sphere water [1]: −62.9 +/− 17.5 J/mol K
Substance: ^natGallium 2,2′-(7-(2-((1-1-((2-(((S)-1-amino-3-(1H-indol-3-yl)-1-oxopropan-2-yl)amino)-2-oxoethyl)amino)-3-hydroxy-1-oxopropan-2-yl)amino)-2-oxoethyl)-1,4,7-triazonane-1,4-diyl)diacetate [^natGa-4]

autolytic release (analytical HPLC chromatograms) [2]: no autolytic release
Substance: ^natScandium 2,2′,2″-(10-(2-((1-1-((2-(((S)-1-amino-3-(1H-indol-3-yl)-1-oxopropan-2-yl)amino)-2-oxoethyl)amino)-3-hydroxy-1-oxopropan-2-yl)amino)-2-oxoethyl)-1,4,7,10-tetraazacyclododecane-1,4,7-triyl)triacetate [^natSc-5]
